The subject of one data set is 268gly. Nature of the data set: Enzyme kinetics of prodrugs with 268gly mutant of human CPA1 (coupled assay). In kind it is biochemical. The source says: (§1) As indicated herein, the in vivo stable prodrug of the present invention should be a better substrate for a mutant enzyme than the corresponding wild type enzyme in order for the stable prodrug to be activated selectively at the tumour. […] The most relevant kinetic constant in the table is the kcat/Km, which provides an estimate of the second order rate constant for the enzyme catalyzed conversion of prodrug to methotrexate. Thus, the larger the kcat/Km, the more efficient the enzyme with a particular substrate. […] Thus, the single mutation at 268 from thr to gly converted very poor substrates in the wild type enzyme to excellent substrates in the mutant enzyme. […] Thus, the compounds are much better substrates for the mutant enzyme than the wild type enzyme which permits very specific tumor targeted activation of the nontoxic, stable prodrug to the active agent.
(§2) Kinetics were determined by a modification of the coupled assay of Kuefner, et al (1989) Biochemistry 28 2288-2297 in which the product MTX is converted by excess carboxypeptidase G to the pteroate of MTX. In this assay the reaction is followed spectrophotometrically at 315 nm; at this wavelength the change in molar absorbtivity for the coupled reaction was determined to be 9.57 mM^-1 cm^-1. Assays were performed at 25° C. in 25 mM tris-HCl, 100 mM NaCl, pH 7.4. Prodrugs were preincubated at 25° C. with buffer and 17 milliunits of Sigma #C-9658 carboxypeptidase G in 1 ml total volume. Assay was initiated with carboxypeptidase A or the appropriate mutant. Initial velocities were obtained, and standard Michaelis-Menten calculations were used to determine kinetic constants (in Biochemistry, Lehninger, A. L. 1970, Worth Publishers, Inc, NY).

A further data set deals with 268ala. Nature of the data set: Enzyme kinetics of prodrugs with 268ala mutant of human CPA1 (coupled assay). To be noted: 25° C., pH 7.4. In kind it is biochemical.
Text: as §1, §2

The target in data set [1] is T1, wild type human carboxypeptidase A1 (Homo sapiens, UniProt P15085).
T1 sequence (P15085 111-419): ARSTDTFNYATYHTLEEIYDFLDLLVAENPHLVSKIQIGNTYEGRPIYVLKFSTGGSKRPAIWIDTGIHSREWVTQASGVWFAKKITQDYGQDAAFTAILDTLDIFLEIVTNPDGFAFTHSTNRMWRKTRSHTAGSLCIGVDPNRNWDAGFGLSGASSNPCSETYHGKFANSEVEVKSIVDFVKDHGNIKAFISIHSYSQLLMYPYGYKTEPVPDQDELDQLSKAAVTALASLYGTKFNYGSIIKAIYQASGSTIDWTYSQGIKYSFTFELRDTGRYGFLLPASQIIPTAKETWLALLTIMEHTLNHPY
Put plainly: Enzyme kinetics of prodrugs with wild type human carboxypeptidase A1 (coupled assay). The data set is classed as biochemical.
Text: as §1, §2

For data set [2] the following is noted: mouse, in vivo, iv.
Another data set is described as follows: in vivo. To be noted: mouse, iv.
Data set [3] can be described thus: Prodrug toxicity, maximum tolerated dose. Particulars: Swiss nu/nu mice, IV daily for 5 days.
Substrate in data set [4]: CN(Cc1cnc2nc(N)nc(N)c2n1)c1ccc(C(=O)N[C@@H](CCC(=O)O)C(=O)N[C@@H](Cc2ccccc2C2CCCC2)C(=O)O)cc1
Put plainly: Enzyme kinetics of prodrugs with wild type human carboxypeptidase A1 (coupled assay). In kind it is biochemical. To be noted: other: Human CPA1, 25° C., pH 7.4.
Text: as §1
(§3) Kinetics were determined by a modification of the coupled assay of Kuefner, et al (1989) Biochemistry 28 2288-2297 in which the product MTX is converted by excess carboxypeptidase G to the pteroate of MTX. In this assay the reaction is followed spectrophotometrically at 315 nm; at this wavelength the change in molar absorbtivity for the coupled reaction was determined to be 9.57 mM^-1 cm^-1. Assays were performed at 25° C. in 25 mM tris-HCl, 100 mM NaCl, pH 7.4. […]

Substrate in data set [5]: CN(Cc1cnc2nc(N)nc(N)c2n1)c1ccc(C(=O)N[C@@H](CCC(=O)O)C(=O)N[C@@H](Cc2ccccc2)C(=O)O)cc1
The description is as above. In kind it is biochemical. Particulars: other: Human CPA1, 25° C., pH 7.4.
Text: as §1, §3

A short description of data set [6]: IEF of proCPA and mature CPA. The data set is classed as physicochemical. As to the method:
The final OD600 was 14. […] All subsequent buffers contained 0.1 mM Zn-acetate. […] Total protein=368 mg.

Data on four molecules can be found in patent US6319702A, “Nucleic acids encoding mutant human carboxypeptidase A enzymes” (Glaxo Wellcome, Inc., priority 1993, dated 2001).

Where only a bound is given, the exact number is not on record here.

The kcat/Km is the second-order rate constant that governs catalysis at low substrate concentration. What is called Km is the substrate concentration at which the rate is half of its maximum. A word on the kcat: it is the maximal rate divided by the concentration of active sites. Turning to `CN(Cc1cnc2nc(N)nc(N)c2n1)c1ccc(C(=O)N[C@@H](CCC(=O)O)C(=O)N[C@@H](Cc2cccc(C3CCC3)c2)C(=O)O)cc1`, in the data set on 268gly (268Gly), the kcat/Km came out at 1.8e+06 M⁻¹ s⁻¹. Also, the “activity of 268Gly relative to CPA1 with the L-phenylalanine prodrug of MTX” value in the data set on 268gly (268Gly with prodrug vs human CPA1 with L-phenylalanine prodrug) came out at 4 times. Further, in the data set with 268gly (268gly, 25° C., pH 7.4), the Km was determined as 1.8 µM and the kcat amounted to 3 s⁻¹. In the data set on 268ala, the Km turned out to be 160 µM and the catalytic constant (kcat) came out at 0.12 s⁻¹. Further, in data set [1], the “human CPA catalyzed reaction (in words)” value is “not measureable” and the “kcat/Km for human CPA1 compared with that of the L-phenylalanine prodrug (in words)” value was “much lower”. The “kcat (symbol ND)” value in data set [1] (Human CPA1, rate too slow to assay) is given as “ND (not determined; rate to slow assay. kcat ≤ 0.0005/sec.)”. Also, the “dose showing some toxicity” value in data set [2] was found to be 30 mg/kg. Further, the MTD in the data set “in vivo” is under 30 mg/kg.

Consider `CN(Cc1cnc2nc(N)nc(N)c2n1)c1ccc(C(=O)N[C@@H](CCC(=O)O)C(=O)O)cc1` [methotrexate, reference compound], for which the “maximum tolerated dose (MTD)” value in data set [3] was determined as 2.5 mg/kg. For the same molecule, the MTD in “in vivo” was 4 mg/kg.

B1: wild type human carboxypeptidase A1 (Homo sapiens) (protein)
chain: ARSTDTFNYATYHTLEEIYDFLDLLVAENPHLVSKIQIGNTYEGRPIYVLKFSTGGSKRPAIWIDTGIHSREWVTQASGVWFAKKITQDYGQDAAFTAILDTLDIFLEIVTNPDGFAFTHSTNRMWRKTRSHTAGSLCIGVDPNRNWDAGFGLSGASSNPCSETYHGKFANSEVEVKSIVDFVKDHGNIKAFISIHSYSQLLMYPYGYKTEPVPDQDELDQLSKAAVTALASLYGTKFNYGSIIKAIYQASGSTIDWTYSQGIKYSFTFELRDTGRYGFLLPASQIIPTAKETWLALLTIMEHTLNHPY
With B1, the Km in data set [4] is 61 µM; in [5], 4.3 µM. Moreover, the pI in [6] is 6.2.

B2: proCPA: procarboxypeptidase A, cleaved to mature CPA with trypsin (protein, UniProt P15085 17-419, looked up)
pro-form: KEDFVGHQVLRISVADEAQVQKVKELEDLEHLQLDFWRGPAHPGSPIDVRVPFPSIQAVKIFLESHGISYETMIEDVQSLLDEEQEQMFAFRSRARSTDTFNYATYHTLEEIYDFLDLLVAENPHLVSKIQIGNTYEGRPIYVLKFSTGGSKRPAIWIDTGIHSREWVTQASGVWFAKKITQDYGQDAAFTAILDTLDIFLEIVTNPDGFAFTHSTNRMWRKTRSHTAGSLCIGVDPNRNWDAGFGLSGASSNPCSETYHGKFANSEVEVKSIVDFVKDHGNIKAFISIHSYSQLLMYPYGYKTEPVPDQDELDQLSKAAVTALASLYGTKFNYGSIIKAIYQASGSTIDWTYSQGIKYSFTFELRDTGRYGFLLPASQIIPTAKETWLALLTIMEHTLNHPY
modifications: pro-form
notes: procarboxypeptidase A, cleaved to mature CPA with trypsin
Regarding B2, in [6], the pI is 4.75.
